Counter-ions that a name gives are not always drawn.
These compounds were tested against T1, α-1A adrenoreceptor (canine prostate smooth muscle) (Canis lupus, UniProt A0A8I3NK63) (assay: Functional antagonism: inhibition of phenylephrine-induced contraction of canine prostate strips). Conditions: Schild plot.
T1 construct: antagonism of phenylephrine-induced contraction (pA2, Schild)
T1 sequence (A0A8I3NK63 1-466): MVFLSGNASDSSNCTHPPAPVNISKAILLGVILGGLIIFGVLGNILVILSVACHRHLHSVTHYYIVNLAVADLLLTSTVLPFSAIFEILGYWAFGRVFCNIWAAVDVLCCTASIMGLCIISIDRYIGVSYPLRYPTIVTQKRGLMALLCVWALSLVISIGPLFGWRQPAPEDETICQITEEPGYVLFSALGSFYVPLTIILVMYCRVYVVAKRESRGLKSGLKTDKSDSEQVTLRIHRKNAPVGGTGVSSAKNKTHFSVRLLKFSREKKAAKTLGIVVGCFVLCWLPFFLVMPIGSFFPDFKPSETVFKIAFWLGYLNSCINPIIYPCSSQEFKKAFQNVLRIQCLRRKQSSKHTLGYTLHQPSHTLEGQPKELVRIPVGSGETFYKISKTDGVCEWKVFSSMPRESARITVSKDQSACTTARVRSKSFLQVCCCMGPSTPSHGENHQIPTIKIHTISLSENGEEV
Assay type: cell-based
Excerpt: Canine prostate strips were used in vitro as previously described (Hieble, J. P., Boyce, Caine, M., Fed Proc., 45: 2609-2614 (1986)), to determine antagonist potencies phenylephrine-induced contractions.
(§1) Functional assays indicative of pharmacologically defined α-1 adrenoreceptors were used to further characterize compounds. Inhibition of phenylephrine (PE)-induced contraction of canine prostate smooth muscle can be correlated with α-1A adrenoreceptor activation. […] For each of these models, agonist dose response curves were repeated against increasing concentrations of test agent to derive a Schild plot [log ([…]) against log (molarity of test agent)] to determine the pA2.
Canine prostate strips were used in vitro as previously described (Hieble, J. P., Boyce, A. J. and Caine, M., Fed. Proc., 45: 2609-2614 (1986)), to determine antagonist potencies against phenylephrine-induced contractions.

In Vitro Characterization (pA2) Dog Prostate	SMILES
6.65	COc1ccc2c(c1)OC[C@H]1CN(CCn3c(=O)[nH]c4c(sc5ccccc54)c3=O)C[C@@H]21.Cl (racemic) [Example 63, 3-[2-((±)-cis-7-Methoxy-1,2,3,3a,4,9b-hexahydro-[1]-benzopyrano[3,4-c]pyrrol-2-yl)ethyl]-[1]benzthieno[3,2-d]pyrimidine-2,4(1H,3H)-dione hydrochloride]
6.92	COc1ccc2c(c1)OC[C@H]1CN(CCCn3c(=O)[nH]c4c(sc5ccccc54)c3=O)C[C@@H]21.Cl (racemic) [Example 64]
7.76	COc1cccc2c1[C@@H]1CN(CCn3c(=O)[nH]c4c(sc5ccccc54)c3=O)C[C@@H]1CO2.Cl (racemic) [Example 65, 3-[2-((±)-cis-9-Methoxy-1,2,3,3a,4,9b-hexahydro-[1]-benzopyrano[3,4-c]pyrrol-2-yl)ethyl]-[1]-benzthieno[3,2-d]pyrimidine-2,4(1H,3H)-dione hydrochloride]
7.48	COc1cccc2c1[C@@H]1CN(CCCn3c(=O)[nH]c4c(sc5ccccc54)c3=O)C[C@@H]1CO2.Cl (racemic) [Example 66, 3-[3-((±)-cis-9-Methoxy-1,2,3,3a,4,9b-hexahydro-[1]-benzopyrano[3,4-c]pyrrol-2-yl)propyl]-[1]-benzthieno[3,2-d]pyrimidine-2,4(1H,3H)-dione hydrochloride]
7.02	COc1cccc2c1OC[C@H]1CN(CCCn3c(=O)[nH]c4c(sc5ccccc54)c3=O)C[C@@H]21.Cl (racemic) [Example 68, 3-[3-((±)-cis-6-Methoxy-1,2,3,3a,4,9b-hexahydro-[1]-benzopyrano[3,4-c]pyrrol-2-yl)propyl]-[1]-benzthieno[3,2-d]pyrimidine-2,4(1H,3H)-dione hydrochloride]
6.91	Cl.O=c1[nH]c2c(sc3ccccc32)c(=O)n1CCN1C[C@@H]2COc3ccccc3[C@@H]2C1 (racemic) [Example 69, 3-[2-((±)-cis-1,2,3,3a,4,9b-hexahydro-[1]-benzopyrano[3,4-c]pyrrol-2-yl)ethyl]-[1]-benzthieno[3,2-d]pyrimidine-2,4(1H,3H)-dione hydrochloride]
9.03	COc1cccc2c1[C@H]1CN(CCCCn3c(=O)[nH]c4c(sc5nccnc54)c3=O)C[C@@H]1CO2.Cl.Cl (racemic) [Example 74, 3-[4-((±)-trans-9-Methoxy-1,2,3,3a,4,9b-hexahydro-[1]-benzopyrano[3,4-c]pyrrol-2-yl)butyl]-pyrazino[2',3':4,5]thieno[3,2-d]pyrimidine-2,4(1H,3H)-dione dihydrochloride]
8.6	COc1cccc2c1[C@@H]1CCN(CCCCn3c(=O)[nH]c4c(sc5ncccc54)c3=O)C[C@H]1CO2 (relative stereo) [Example 85, 3-[4-((±)-trans-10-Methoxy-1,3,4,4a,5,10b-hexahydro-2H-[1]-benzopyrano[3,4-c]pyrido-3-yl)butyl]-pyrido[3',2':4,5]thieno[3,2-d]pyrimidine-2,4(1H,3H)-dione dihydrochloride]

What follows are compounds tested against T2, α-1 Adrenoceptors (Rat Aorta) (Rattus norvegicus, UniProt P23944) (assay: Functional antagonism at α-1 adrenoceptors, rat aorta). Conditions: read-out: In Vitro Characterization (pA2) Rat Aorta (converted).
T2 construct: Rat Aorta; from tissue; host or cells: rat aorta
T2 sequence (P23944 1-561): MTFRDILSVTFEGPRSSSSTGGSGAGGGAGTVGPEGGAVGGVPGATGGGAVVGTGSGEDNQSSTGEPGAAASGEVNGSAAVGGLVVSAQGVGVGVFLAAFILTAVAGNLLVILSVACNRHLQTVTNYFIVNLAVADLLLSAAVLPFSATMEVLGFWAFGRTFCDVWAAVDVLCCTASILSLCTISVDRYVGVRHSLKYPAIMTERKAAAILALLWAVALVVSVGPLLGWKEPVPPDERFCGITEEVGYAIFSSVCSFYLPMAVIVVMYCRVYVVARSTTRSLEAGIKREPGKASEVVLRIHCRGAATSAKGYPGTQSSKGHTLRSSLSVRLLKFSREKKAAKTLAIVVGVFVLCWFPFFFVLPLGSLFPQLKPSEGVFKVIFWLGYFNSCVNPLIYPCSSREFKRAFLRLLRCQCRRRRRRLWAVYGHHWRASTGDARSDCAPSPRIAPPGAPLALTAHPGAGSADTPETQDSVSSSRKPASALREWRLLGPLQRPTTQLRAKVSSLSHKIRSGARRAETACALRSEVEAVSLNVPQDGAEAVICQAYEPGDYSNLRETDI
Assay type: cell-based
Excerpt: as §1

Kb [nM]	SMILES
0.631	COc1cccc2c1[C@@H]1CN(CCCCn3c(=O)[nH]c4c(sc5c(OC)ccnc54)c3=O)C[C@H]1CO2 [Example 17, 3-[4-((3aS,9bR)-trans-9-Methoxy-1,2,3,3a,4,9b-hexahydro-[1]-benzopyrano[3,4-c]pyrrol-2-yl)butyl]-6-methoxy-pyrido[2',3':4,51thieno[3,2-d]pyrimidine-2,4(1H,3H)-dione dihydrochloride]
0.457	COc1cccc2c1[C@@H]1CN(CCCCn3c(=O)[nH]c4c(sc5c(OC)ccnc54)c3=O)C[C@@H]1CO2 [Example 18, 3-[4-((3aR,9bR)-cis-9-Methoxy-1,2,3,3a,4,9b-hexahydro-[1]-benzopyrano[3.4-c]pyrrol-2-yl)butyl]-6-methoxy-pyrido[2',3':4,51thieno[3,2-d]pyrimidine-2,4(1H,3H)-dione dihydrochloride]
0.0138	COc1cccc2c1[C@@H]1CN(CCCCn3c(=O)[nH]c4c(sc5ccc(Cl)nc54)c3=O)C[C@H]1CO2 [Example 25, 3-[4-((3aS,9bR)-trans-9-Methoxy-1,2,3,3a,4,9b-hexahydro-[1]-benzopyrano[3,4-c]pyrrol-2-yl)butyl]-8-chloro-pyrido[2',3':4,5]thieno[3,2-d]pyrimidine-2,4(1H,3H)-dione dihydrochloride]
0.501	COc1cccc2c1[C@@H]1CN(CCCCn3c(=O)[nH]c4c(sc5cnccc54)c3=O)C[C@@H]1CO2 [Example 29, 3-[4-((3aR,9bR)-cis-9-Methoxy-1,2,3,3a,4,9b-hexahydro-[1]-benzopyrano[3,4-c]pyrrol-2-yl)butyl]-pyrido[4',3':4,5]thieno[3,2-d]pyrimidine-2,4(1H,3H)-dione hydrochloride]
0.794	COc1cnc2sc3c(=O)n(CCCCN4C[C@@H]5COc6cccc(OC)c6[C@@H]5C4)c(=O)[nH]c3c2n1 [Example 31, hydrochloride]
0.741	COc1cccc2c1[C@@H]1CN(CCCCn3c(=O)[nH]c4c(sc5nc(C)ccc54)c3=O)C[C@@H]1CO2 [Example 35, hydrochloride]
0.372	COc1cccc2c1[C@@H]1CN(CCCCn3c(=O)[nH]c4c(sc5nccc(OC)c54)c3=O)C[C@@H]1CO2 [Example 36, 3-[4-((3aR,9bR)-cis-9-Methoxy-1,2,3,3a,4,9b-hexahydro-[1]-benzopyrano[3,4-c]pyrrol-2-yl)butyl]-9-methoxy-pyrido[2',3':4,5]thieno[3,2-d]pyrimidine-2,4(1H,3H)-dione hydrochloride]
0.229	COc1cccc2c1[C@@H]1CN(CCCCn3c(=O)[nH]c4c(sc5ccc(Cl)nc54)c3=O)C[C@@H]1CO2 [Example 37, 3-[4((3aR,9bR)-cis-9-Methoxy-1,2,3,3a,4,9b-hexahydro-[1]-benzopyrano[3,4-c]pyrrol-2-yl)butyl]-8-chloro-pyrido[2',3':4,5]thieno[3,2-d]pyrimidine-2,4(1H,3H)-dione hydrochloride]
4.47	COc1cccc2c1[C@@H]1CN(CCCCn3c(=O)[nH]c4c(sc5nc(-c6ccccc6)cnc54)c3=O)C[C@@H]1CO2 [Example 40, 3-[4-((3aR,9bR)-cis-9-Methoxy-1,2,3,3a,4,9b-hexahydro-[1]-benzopyrano[3,4-c]pyrrol-2-yl)butyl]-7-phenyl-pyrazino[2',3':4,5]thieno[3,2-d]pyrimidine-2,4(1H,3H)-dione hydrochloride]
0.182	COc1cccc2c1[C@@H]1CN(CCCCn3c(=O)[nH]c4c(sc5ccc(OC(C)C)nc54)c3=O)C[C@H]1CO2 [Example 51, 3-[4-((3aS,9bR)-trans-9-Methoxy-1,2,3,3a,4,9b-hexahydro-[1]-benzopyrano[3,4-c]pyrrol-2-yl)butyl]-8-isopropoxy-pyrido[2',3':4,5]thieno[3,2-d]pyrimidine-2,4(1H,3H)-dione hydrochloride]

SMILES	Kb [nM]
COc1cccc2c1[C@@H]1CN(CCCCn3c(=O)[nH]c4c(sc5cc(Cl)cnc54)c3=O)C[C@@H]1CO2 [Example 38, 3-[4((3aR,9bR)-cis-9-Methoxy-1,2,3,3a,4,9b-hexahydro-[1]-benzopyrano[3,4-c]pyrrol-2-yl)butyl]-7-chloro-pyrido[2',3':4,5]thieno[3,2-d]pyrimidine-2,4(1H,3H)-dione hydrochloride]	1.15

From patent US5891882A, “Benzopyranopyrrole and benzopyranopyridine α-1 adenergic compounds” (priority 1997, dated 1999)
